Earlier results, collected in US7205292B2, “CGRP receptor antagonists” (Merck & Co., Inc., priority 2003, dated 2007).

Tests used:
CGRP [1] = conditions: marmoset, electrical stimulation of the trigeminal ganglion
CGRP [2] = conditions: rat, trigeminal ganglion stimulation
CGRP [3] = conditions: rats, electrical stimulation of the dura mater, prior administration

Row | Compound | effect on increase in facial blood flow (CGRP [1]) | effect on increased facial blood flow (CGRP [2]) | effect on increased diameter of the middle meningeal artery (CGRP [3])
1 | NCCCC[C@H](NC(=O)[C@@H](Cc1cc(Br)c(O)c(Br)c1)NC(=O)N1CCC(N2Cc3ccccc3NC2=O)CC1)C(=O)N1CCN(c2ccncc2)CC1 [BIBN4096BS] | blocked | – | –
2 | CGRP(8-37) | – | inhibited | blocked
